Test results as given in PMC7434893 (British Journal of Cancer, 2020).
pIC50: −log10 of the molar value. Values joined by “and” are separate entries in the source; they are usually repeats but may differ in a detail not shown here. Equal values may be shown once. Read-outs that look alike come from different tables or passages of the source.

What was measured:
HEC-1 = experiment: 8-day growth inhibition; type: cell-based; details: Endometrial, HEC-1, 8-day assay
KG-1 = experiment: 8-day growth inhibition; type: cell-based; details: AML, KG-1, 8-day assay
NCI-H209 = experiment: 8-day growth inhibition; type: cell-based; details: SCLC, NCI-H209, 8-day assay

O=c1[nH]nc2c3c(cccc13)N=C(CN1Cc3ccccc3C1)N2 [E7449]
Abdominal pain, treatment-related AE (50 mg (n = 3)): 0% | Anaemia, treatment-related AE (50 mg (n = 3)): 33.3% | Chromaturia, treatment-related AE (50 mg (n = 3)): 0% | Constipation, treatment-related AE (50 mg (n = 3)): 33.3% | Decreased appetite, treatment-related AE (50 mg (n = 3)): 33.3% | Depression, treatment-related AE (50 mg (n = 3)): 0% | Diarrhoea, treatment-related AE (50 mg (n = 3)): 33.3% | Dizziness, treatment-related AE (50 mg (n = 3)): 0% | Dry skin, treatment-related AE (50 mg (n = 3)): 0% | Dysgeusia, treatment-related AE (50 mg (n = 3)): 0% | Erythematous rash, treatment-related AE (50 mg (n = 3)): 0% | Fatigue, treatment-related AE (50 mg (n = 3)): 33.3% | Increased blood alkaline phosphatase, treatment-related AE (50 mg (n = 3)): 0% | Maculopapular rash, treatment-related AE (50 mg (n = 3)): 0% | Nausea, treatment-related AE (50 mg (n = 3)): 33.3% | Onycholysis, treatment-related AE (50 mg (n = 3)): 0% | Periorbital oedema, treatment-related AE (50 mg (n = 3)): 0% | Photosensitivity reaction, treatment-related AE (50 mg (n = 3)): 33.3% | Pruritus, treatment-related AE (50 mg (n = 3)): 0% | Skin hyperpigmentation, treatment-related AE (50 mg (n = 3)): 0% | Vomiting, treatment-related AE (50 mg (n = 3)): 33.3% | Patients with dose-limiting toxicity, n (%) (50 mg cohort, 3 evaluable): 0 n (%) | Abdominal pain, treatment-related AE (100 mg (n = 3)): 33.3% | Anaemia, treatment-related AE (100 mg (n = 3)): 0% | Chromaturia, treatment-related AE (100 mg (n = 3)): 0% | Constipation, treatment-related AE (100 mg (n = 3)): 33.3% | Decreased appetite, treatment-related AE (100 mg (n = 3)): 0% | Depression, treatment-related AE (100 mg (n = 3)): 33.3% | Diarrhoea, treatment-related AE (100 mg (n = 3)): 33.3% | Dizziness, treatment-related AE (100 mg (n = 3)): 0% | Dry skin, treatment-related AE (100 mg (n = 3)): 33.3% | Dysgeusia, treatment-related AE (100 mg (n = 3)): 0% | Erythematous rash, treatment-related AE (100 mg (n = 3)): 0% | Fatigue, treatment-related AE (100 mg (n = 3)): 66.7% | Increased blood alkaline phosphatase, treatment-related AE (100 mg (n = 3)): 0% | Maculopapular rash, treatment-related AE (100 mg (n = 3)): 33.3% | Nausea, treatment-related AE (100 mg (n = 3)): 33.3% | Onycholysis, treatment-related AE (100 mg (n = 3)): 0% | Periorbital oedema, treatment-related AE (100 mg (n = 3)): 0% | Photosensitivity reaction, treatment-related AE (100 mg (n = 3)): 33.3% | Pruritus, treatment-related AE (100 mg (n = 3)): 33.3% | Skin hyperpigmentation, treatment-related AE (100 mg (n = 3)): 33.3% | Vomiting, treatment-related AE (100 mg (n = 3)): 0% | Patients with dose-limiting toxicity, n (%) (100 mg cohort, 3 evaluable): 0 n (%) | Abdominal pain, treatment-related AE (200 mg (n = 4)): 0% | Anaemia, treatment-related AE (200 mg (n = 4)): 0% | Chromaturia, treatment-related AE (200 mg (n = 4)): 0% | Constipation, treatment-related AE (200 mg (n = 4)): 0% | Decreased appetite, treatment-related AE (200 mg (n = 4)): 0% | Depression, treatment-related AE (200 mg (n = 4)): 25.0% | Diarrhoea, treatment-related AE (200 mg (n = 4)): 0% | Dizziness, treatment-related AE (200 mg (n = 4)): 0% | Dry skin, treatment-related AE (200 mg (n = 4)): 0% | Dysgeusia, treatment-related AE (200 mg (n = 4)): 0% | Erythematous rash, treatment-related AE (200 mg (n = 4)): 0% | Fatigue, treatment-related AE (200 mg (n = 4)): 0% | Increased blood alkaline phosphatase, treatment-related AE (200 mg (n = 4)): 0% | Maculopapular rash, treatment-related AE (200 mg (n = 4)): 25.0% | Nausea, treatment-related AE (200 mg (n = 4)): 50.0% | Onycholysis, treatment-related AE (200 mg (n = 4)): 0% | Periorbital oedema, treatment-related AE (200 mg (n = 4)): 0% | Photosensitivity reaction, treatment-related AE (200 mg (n = 4)): 0% | Pruritus, treatment-related AE (200 mg (n = 4)): 0% | Skin hyperpigmentation, treatment-related AE (200 mg (n = 4)): 0% | Vomiting, treatment-related AE (200 mg (n = 4)): 25.0% | Patients with dose-limiting toxicity, n (%) (200 mg cohort, 4 evaluable): 0 n (%) | Abdominal pain, treatment-related AE (400 mg (n = 4)): 25.0% | Anaemia, treatment-related AE (400 mg (n = 4)): 0% | Chromaturia, treatment-related AE (400 mg (n = 4)): 50.0% | Constipation, treatment-related AE (400 mg (n = 4)): 0% | Decreased appetite, treatment-related AE (400 mg (n = 4)): 25.0% | Depression, treatment-related AE (400 mg (n = 4)): 50.0% | Diarrhoea, treatment-related AE (400 mg (n = 4)): 50.0% | Dizziness, treatment-related AE (400 mg (n = 4)): 0% | Dry skin, treatment-related AE (400 mg (n = 4)): 0% | Dysgeusia, treatment-related AE (400 mg (n = 4)): 0% | Erythematous rash, treatment-related AE (400 mg (n = 4)): 0% | Fatigue, treatment-related AE (400 mg (n = 4)): 75.0% | Increased blood alkaline phosphatase, treatment-related AE (400 mg (n = 4)): 25.0% | Maculopapular rash, treatment-related AE (400 mg (n = 4)): 25.0% | Nausea, treatment-related AE (400 mg (n = 4)): 25.0% | Onycholysis, treatment-related AE (400 mg (n = 4)): 25.0% | Periorbital oedema, treatment-related AE (400 mg (n = 4)): 25.0% | Photosensitivity reaction, treatment-related AE (400 mg (n = 4)): 25.0% | Pruritus, treatment-related AE (400 mg (n = 4)): 0% | Skin hyperpigmentation, treatment-related AE (400 mg (n = 4)): 0% | Vomiting, treatment-related AE (400 mg (n = 4)): 0% | Patients with dose-limiting toxicity, n (%) (400 mg cohort, 3 evaluable): 0 n (%) | Abdominal pain, treatment-related AE (600 mg (n = 21)): 0% | Anaemia, treatment-related AE (600 mg (n = 21)): 9.5% | Chromaturia, treatment-related AE (600 mg (n = 21)): 66.7% | Constipation, treatment-related AE (600 mg (n = 21)): 9.5% | Decreased appetite, treatment-related AE (600 mg (n = 21)): 23.8% | Depression, treatment-related AE (600 mg (n = 21)): 4.8% | Diarrhoea, treatment-related AE (600 mg (n = 21)): 23.8% | Dizziness, treatment-related AE (600 mg (n = 21)): 4.8% | Dry skin, treatment-related AE (600 mg (n = 21)): 4.8% | Dysgeusia, treatment-related AE (600 mg (n = 21)): 14.3% | Erythematous rash, treatment-related AE (600 mg (n = 21)): 9.5% | Fatigue, treatment-related AE (600 mg (n = 21)): 66.7% | Increased blood alkaline phosphatase, treatment-related AE (600 mg (n = 21)): 14.3% | Maculopapular rash, treatment-related AE (600 mg (n = 21)): 33.3% | Nausea, treatment-related AE (600 mg (n = 21)): 33.3% | Onycholysis, treatment-related AE (600 mg (n = 21)): 9.5% | Periorbital oedema, treatment-related AE (600 mg (n = 21)): 19.0% | Photosensitivity reaction, treatment-related AE (600 mg (n = 21)): 23.8% | Pruritus, treatment-related AE (600 mg (n = 21)): 19.0% | Skin hyperpigmentation, treatment-related AE (600 mg (n = 21)): 9.5% | Vomiting, treatment-related AE (600 mg (n = 21)): 14.3% | Dose-limiting-toxicity description (600 mg cohort): Grade 3 anaphylactic reaction | Patients with dose-limiting toxicity, n (%) (600 mg cohort, 6 evaluable): 1 (16.7) n (%) | Treatment-related grade 3 fatigue, patients (600 mg n = 2, 800 mg n = 2): 4 | Abdominal pain, treatment-related AE (800 mg (n = 6)): 16.7% | Anaemia, treatment-related AE (800 mg (n = 6)): 0% | Chromaturia, treatment-related AE (800 mg (n = 6)): 66.7% | Constipation, treatment-related AE (800 mg (n = 6)): 0% | Decreased appetite, treatment-related AE (800 mg (n = 6)): 50.0% | Depression, treatment-related AE (800 mg (n = 6)): 16.7% | Diarrhoea, treatment-related AE (800 mg (n = 6)): 50.0% | Dizziness, treatment-related AE (800 mg (n = 6)): 33.3% | Dry skin, treatment-related AE (800 mg (n = 6)): 33.3% | Dysgeusia, treatment-related AE (800 mg (n = 6)): 0% | Erythematous rash, treatment-related AE (800 mg (n = 6)): 16.7% | Fatigue, treatment-related AE (800 mg (n = 6)): 100.0% | Increased blood alkaline phosphatase, treatment-related AE (800 mg (n = 6)): 0% | Maculopapular rash, treatment-related AE (800 mg (n = 6)): 16.7% | Nausea, treatment-related AE (800 mg (n = 6)): 33.3% | Onycholysis, treatment-related AE (800 mg (n = 6)): 0% | Periorbital oedema, treatment-related AE (800 mg (n = 6)): 0% | Photosensitivity reaction, treatment-related AE (800 mg (n = 6)): 33.3% | Pruritus, treatment-related AE (800 mg (n = 6)): 0% | Skin hyperpigmentation, treatment-related AE (800 mg (n = 6)): 33.3% | Vomiting, treatment-related AE (800 mg (n = 6)): 33.3% | Dose-limiting-toxicity description (800 mg cohort): Grade 3 fatigue (n = 1) Grade 2 fatigue (n = 3) | Patients with dose-limiting toxicity, n (%) (800 mg cohort, 6 evaluable): 4 (66.7) n (%) | Treatment-emergent AEs associated with skin rash events, patients (17/41, doses ≥100 mg): 41.5% | Grade 4 AE (hypokalaemia, not treatment-related), patients (200-mg dose cohort): 1 | Treatment-emergent chromaturia, patients (400-mg dose cohort): 50.0% | Treatment-emergent AEs associated with skin rash events, patients (600-mg dose cohort): 47.6% | Treatment-emergent chromaturia, patients (600-mg dose cohort): 66.7% | Treatment-emergent AEs associated with skin rash events, patients (800-mg dose cohort): 66.7% | Treatment-emergent chromaturia, patients (800-mg dose cohort): 83.3% | Abdominal pain, treatment-related AE (Total (N = 41)): 7.3% | Anaemia, treatment-related AE (Total (N = 41)): 7.3% | Chromaturia, treatment-related AE (Total (N = 41)): 49% and 48.8% | Constipation, treatment-related AE (Total (N = 41)): 9.8% | Decreased appetite, treatment-related AE (Total (N = 41)): 24% and 24.4% | Depression, treatment-related AE (Total (N = 41)): 14.6% | Diarrhoea, treatment-related AE (Total (N = 41)): 29% and 29.3% | Dizziness, treatment-related AE (Total (N = 41)): 7.3% | Dry skin, treatment-related AE (Total (N = 41)): 9.8% | Dysgeusia, treatment-related AE (Total (N = 41)): 7.3% | Erythematous rash, treatment-related AE (Total (N = 41)): 7.3% | Fatigue, treatment-related AE (Total (N = 41)): 63% and 63.4% | Increased blood alkaline phosphatase, treatment-related AE (Total (N = 41)): 9.8% | Maculopapular rash, treatment-related AE (Total (N = 41)): 27% and 26.8% | Nausea, treatment-related AE (Total (N = 41)): 34% and 34.1% | Onycholysis, treatment-related AE (Total (N = 41)): 7.3% | Periorbital oedema, treatment-related AE (Total (N = 41)): 12.2% | Photosensitivity reaction, treatment-related AE (Total (N = 41)): 24% and 24.4% | Pruritus, treatment-related AE (Total (N = 41)): 12.2% | Skin hyperpigmentation, treatment-related AE (Total (N = 41)): 12.2% | Vomiting, treatment-related AE (Total (N = 41)): 17.1% | Grade 5 AEs (all cohorts): No grade 5 AEs | Grade 3 fatigue, patients (all cohorts, 7/41): 17.1% | Treatment discontinued due to AEs, patients (all cohorts, 7/41): 17% | Treatment-emergent chromaturia, patients (all cohorts, 21/41): 51.2% | Nonfatal SAEs, patients (all cohorts, 24/41): 58.5% | Grade 3 AEs, patients (all cohorts, 27 of 41 patients): 65.9% | Patients with treatment-related AEs (all cohorts, 39 patients): 95.1% | Grade 1 thrombocytopenia, patients (at the MTD, 1/21): 5% | Anaemia (≤grade 2), patients (at the MTD, 4/21): 19% | Patients with DLTs (of the 25 evaluable patients, all dose cohorts): 5 | Recommended phase 2 dose (oral, once daily): 600 mg | Maximum-tolerated dose (MTD) (oral, once daily, 28-day cycles): 600 mg | pIC50 (HEC-1): 5.89 | pIC50 (KG-1): 5.70 | pIC50 (NCI-H209): 6.21
